This is an account of results in the NIST ThermoML archive (doi:10.1021/je0504360).

For data set [1] the following is noted: Crystal; DTA.
Data set [2] can be described thus: Molar enthalpy of transition or fusion. Particulars: Crystal; DSC.

Numbers after ± are expanded uncertainties.

With `COc1ccc2cc3[n+](cc2c1OC)CCc1cc2c(cc1-3)OCO2.[Cl-]`, in data set [1], the Normal melting temperature was found to be 200.1 ± 1.1 °C. Also, in data set [2], the “Molar enthalpy of transition or fusion” value was found to be 9.53 ± 0.213 kcal/mol.
